Patent US8138174B2, “Compounds with a combination of cannabinoid CB1 antagonism and serotonin reuptake inhibition” (Solvay Pharmaceuticals B.V., priority 2007, dated 2012)
Where two headings read alike, the source gives them in different places.

Key:
[1] = biological target: T1, serotonin reuptake sites (Rattus norvegicus, UniProt P31652); test: In vitro affinity for serotonin reuptake sites ([3H]-paroxetine binding, Habert 1985)
T1 construct: from tissue

[2] = biological target: human cannabinoid CB1 receptor (Homo sapiens, UniProt P21554); test: In vitro affinity for human cannabinoid CB1 receptors ([3H]CP-55,940 binding, CHO cell membranes); conditions: radioligand [3H]-CP-55,940; membranes of CHO cells stably transfected with human CB1 receptor; read-out: CB1 receptor binding [3H]-CP-55,940 pKi (converted)
Sequence of human cannabinoid CB1 receptor (P21554 whole entry): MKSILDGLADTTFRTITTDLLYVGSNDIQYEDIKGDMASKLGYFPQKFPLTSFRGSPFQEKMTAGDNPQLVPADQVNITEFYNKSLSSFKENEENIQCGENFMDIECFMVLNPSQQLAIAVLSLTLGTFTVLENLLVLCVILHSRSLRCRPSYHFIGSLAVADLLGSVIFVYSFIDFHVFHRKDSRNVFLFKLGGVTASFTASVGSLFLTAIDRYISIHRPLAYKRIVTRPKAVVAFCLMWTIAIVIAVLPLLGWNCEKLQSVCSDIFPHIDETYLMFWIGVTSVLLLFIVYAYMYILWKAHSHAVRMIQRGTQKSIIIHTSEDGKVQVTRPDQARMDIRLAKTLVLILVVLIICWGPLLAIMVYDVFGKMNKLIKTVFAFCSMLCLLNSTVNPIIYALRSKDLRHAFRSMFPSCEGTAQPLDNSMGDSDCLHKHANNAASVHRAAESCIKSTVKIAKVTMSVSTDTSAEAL
Experimental: In vitro affinity for human cannabinoid CB1 receptors
After incubation of a freshly prepared cell membrane preparation with the [^3H]-ligand, with or without addition of compounds of the invention, separation of bound and free ligand is performed by filtration over glassfiber filters. Radioactivity on the filter is measured by liquid scintillation counting.

[3] = radioligand [3H]-paroxetine, read-out: 5-HT reuptake binding [3H]-paroxetine pKi (converted)

T1 sequence (P31652 whole entry): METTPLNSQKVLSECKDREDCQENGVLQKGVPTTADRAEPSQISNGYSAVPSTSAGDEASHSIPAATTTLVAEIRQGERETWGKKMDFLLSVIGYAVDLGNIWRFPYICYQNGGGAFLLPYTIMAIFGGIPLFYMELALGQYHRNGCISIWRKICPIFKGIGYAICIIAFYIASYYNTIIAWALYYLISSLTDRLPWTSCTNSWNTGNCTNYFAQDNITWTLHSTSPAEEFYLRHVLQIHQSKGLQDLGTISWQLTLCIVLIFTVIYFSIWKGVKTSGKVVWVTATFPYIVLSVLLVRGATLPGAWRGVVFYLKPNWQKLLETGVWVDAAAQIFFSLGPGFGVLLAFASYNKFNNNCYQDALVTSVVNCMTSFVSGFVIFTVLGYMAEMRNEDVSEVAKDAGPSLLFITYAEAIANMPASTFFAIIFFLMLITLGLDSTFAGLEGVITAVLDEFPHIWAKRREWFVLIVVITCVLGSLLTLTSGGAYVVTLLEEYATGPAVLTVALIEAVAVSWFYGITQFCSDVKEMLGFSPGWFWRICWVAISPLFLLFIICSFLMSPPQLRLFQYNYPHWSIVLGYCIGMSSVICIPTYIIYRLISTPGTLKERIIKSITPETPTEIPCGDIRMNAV

Row | SMILES | Ki [2] [nM] | Ki [1, 3] [nM] | also measured
1 | CCc1c(C(=O)NN2CCCCC2)nc(-c2ccccc2Cl)n1-c1ccc(Cl)cc1 [WO 03/027076] |  |  | affinity for 5-HT reuptake sites / serotonin reuptake inhibition (in words) [1]: completely inactive; Ki ([1]; read-out: 5-HT reuptake binding [3H]-paroxetine pKi (converted)): > 31600 nM
2 | CN(C)CCCN1c2ccccc2CCc2ccccc21 [imipramine] | > 1000 |  | 
3 | CCc1c(C(=O)NCCCCCCC(=NOCCN)c2ccc(C(F)(F)F)cc2)nc(-c2ccccc2Cl)n1-c1ccc(Cl)cc1 (racemic) [Compound 2, 2-(2-Chlorophenyl)-1-(4-chlorophenyl)-5-ethyl-1H-imidazole-4-carboxylic acid [7-(2-amino-ethoxyimino)-7-[4-(trifluoromethyl)phenyl]heptyl]amide] | 39.8 | 200 | 
4 | CN=C(NS(=O)(=O)c1ccc(Cl)cc1)N1C[C@H](c2ccccc2)C(c2ccc(Cl)cc2)=N1 [SLV319] |  | > 10000 | 
5 | CN(C)CCCC1(c2ccc(F)cc2)OCc2cc(C#N)ccc21 (stereo not shown) [citalopram] | > 10000 |  | 
6 | NCCO/N=C(/CCCCCCN/C(=N/S(=O)(=O)c1ccc(Cl)cc1)N1CC(c2ccccc2)C(c2ccc(Cl)cc2)=N1)c1ccc(C(F)(F)F)cc1 (stereo not shown) [Compound 1] | 251 | 15.8 | affinity for 5-HT reuptake sites / serotonin reuptake inhibition (in words) [1]: as potent a serotonin reuptake inhibitor as fluoxetine
7 | CN[C@H]1CC[C@@H](c2ccc(Cl)c(Cl)c2)c2ccccc21 [sertraline] | > 10000 |  | 
8 | Fc1ccc2[nH]cc(CCCCN3CCNCC3)c2c1 [compound A] | > 1000 |  | Ki [1]: 1.26 nM
9 | c1ccc2c(CCC3CCNCC3)c[nH]c2c1 [indalpine] | > 1000 |  | 5-HT reuptake binding [3H]-paroxetine pKi ([1]; radioligand [3H]-paroxetine): 8.6
10 | Fc1ccc([C@@H]2CCNC[C@H]2COc2ccc3c(c2)OCO3)cc1 [paroxetine] | > 1000 |  | 
11 | Cc1c(C(=O)NN2CCCCC2)nn(-c2ccc(Cl)cc2Cl)c1-c1ccc(Cl)cc1 [rimonabant] |  | 5010 | 
12 | CN(C)CCC=C1c2ccccc2CCc2ccccc21 [amitriptyline] | > 10000 |  | 
13 | O=S(=O)(/N=C(/N1CCN(CCCCc2c[nH]c3ccc(F)cc23)CC1)N1CC(c2ccccc2)C(c2ccc(Cl)cc2)=N1)c1ccc(Cl)cc1 (stereo not shown) [Compound 4] | 251 | 25.1 | 
14 | CCc1c(C(=O)N2CCN(CCCCc3c[nH]c4ccc(F)cc34)CC2)nc(-c2ccccc2Cl)n1-c1ccc(Cl)cc1 [Compound 3, [2-(2-Chlorophenyl)-1-(4-chlorophenyl)-5-ethyl-1H-imidazole-4-yl] {4-[4-(5-flouro-1H-indol-3-yl)butyl]piperazin-1-yl}methanone] | 31.6 | 20 | 
